Data taken from PMC4320052, “High Level Expression of a Novel Family 3 Neutral β-Xylosidase from Humicola insolens Y1 with High Tolerance to D-Xylose” (PLoS ONE, 2015).

T1: Xyl3A (Mycothermus thermophilus, UniProt A0A0C5AKM5)
T1 construct: mature Xyl3A, signal peptide (residues 1-19) removed; precursor 777 residues; pPIC9 alpha-factor fusion, secreted from Pichia pastoris GS115
T1 sequence (A0A0C5AKM5 20-777): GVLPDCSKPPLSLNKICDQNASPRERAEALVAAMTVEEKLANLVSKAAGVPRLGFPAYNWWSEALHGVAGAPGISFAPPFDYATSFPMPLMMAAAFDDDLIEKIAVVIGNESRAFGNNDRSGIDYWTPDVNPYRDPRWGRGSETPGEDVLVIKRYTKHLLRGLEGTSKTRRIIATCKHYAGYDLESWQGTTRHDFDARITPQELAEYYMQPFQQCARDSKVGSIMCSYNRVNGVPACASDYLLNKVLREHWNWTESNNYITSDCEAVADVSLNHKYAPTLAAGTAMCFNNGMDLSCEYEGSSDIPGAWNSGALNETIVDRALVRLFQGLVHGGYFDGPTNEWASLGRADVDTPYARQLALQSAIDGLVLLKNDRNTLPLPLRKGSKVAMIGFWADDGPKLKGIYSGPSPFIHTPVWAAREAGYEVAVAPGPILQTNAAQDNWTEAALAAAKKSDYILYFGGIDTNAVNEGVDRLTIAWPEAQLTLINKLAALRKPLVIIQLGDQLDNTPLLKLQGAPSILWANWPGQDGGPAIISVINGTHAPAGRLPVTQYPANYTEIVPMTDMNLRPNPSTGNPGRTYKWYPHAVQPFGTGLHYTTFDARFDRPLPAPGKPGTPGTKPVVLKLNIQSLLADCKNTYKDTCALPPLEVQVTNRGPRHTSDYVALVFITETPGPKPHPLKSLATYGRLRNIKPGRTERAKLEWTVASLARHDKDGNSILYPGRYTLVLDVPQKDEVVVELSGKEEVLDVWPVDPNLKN


What was measured:
Xyl3A = molecular target: T1, Xyl3A; assay: pNPX hydrolysis at […] nm, Dixon plot; type: biochemical; conditions: pNPX 0.75 and 1 mM, xylose 5-50 mM, pH 6.0, 60°C; competitive (general statement for β-xylosidases); Methods define Ki as xylose giving 50% inhibition
purified protein = substrate: O=[N+]([O-])c1ccc(O[C@@H]2OC[C@@H](O)[C@H](O)[C@H]2O)cc1; assay: purified protein; type: biochemical, Mycothermus thermophilus; conditions: pNPX 1-10 mM, 100 mM Na2HPO4-citric acid, pH 6.0, 60°C, 5 min

Ki (Xyl3A) [mM]	Molecule	Km (purified protein) [µM]
29	OC1OC[C@@H](O)[C@H](O)[C@H]1O (some centres unmarked) [xylose]	
	Xyl3A (Mycothermus thermophilus) (protein, mature Xyl3A, signal peptide (residues 1-19) removed; precursor 777 residues; pPIC9 alpha-factor fusion, secreted from Pichia pastoris GS115) GVLPDCSKPPLSLNKICDQNASPRERAEALVAAMTVEEKLANLVSKAAGVPRLGFPAYNWWSEALHGVAGAPGISFAPPFDYATSFPMPLMMAAAFDDDLIEKIAVVIGNESRAFGNNDRSGIDYWTPDVNPYRDPRWGRGSETPGEDVLVIKRYTKHLLRGLEGTSKTRRIIATCKHYAGYDLESWQGTTRHDFDARITPQELAEYYMQPFQQCARDSKVGSIMCSYNRVNGVPACASDYLLNKVLREHWNWTESNNYITSDCEAVADVSLNHKYAPTLAAGTAMCFNNGMDLSCEYEGSSDIPGAWNSGALNETIVDRALVRLFQGLVHGGYFDGPTNEWASLGRADVDTPYARQLALQSAIDGLVLLKNDRNTLPLPLRKGSKVAMIGFWADDGPKLKGIYSGPSPFIHTPVWAAREAGYEVAVAPGPILQTNAAQDNWTEAALAAAKKSDYILYFGGIDTNAVNEGVDRLTIAWPEAQLTLINKLAALRKPLVIIQLGDQLDNTPLLKLQGAPSILWANWPGQDGGPAIISVINGTHAPAGRLPVTQYPANYTEIVPMTDMNLRPNPSTGNPGRTYKWYPHAVQPFGTGLHYTTFDARFDRPLPAPGKPGTPGTKPVVLKLNIQSLLADCKNTYKDTCALPPLEVQVTNRGPRHTSDYVALVFITETPGPKPHPLKSLATYGRLRNIKPGRTERAKLEWTVASLARHDKDGNSILYPGRYTLVLDVPQKDEVVVELSGKEEVLDVWPVDPNLKN	2510
